Measurements published in the supplement of paper PMC5908809.

Tests used:
[1] = tested on: normal NK cells expanded with K562-aAPC; assay: percent inhibition of viability; higher = more inhibition; conditions: 72 h, IL-2 2.5 ng/mL
Method: (§1)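 Drug sensitivity and resistance testing on K562-aAPC-expanded normal NK cells: 5 concentrations (10-fold steps over a 10,000-fold range), 72 h at 37 °C, viability by CellTiter-Glo normalised to DMSO and benzethonium chloride controls; DSS from the fitted curve.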

DERL-7 (IL-2 2.5 ng/mL) [2] = assay: as above; conditions: 72 h
IMC-1 (IL-2 20 ng/mL) [3] = assay: as above; conditions: 72 h
KAI3 (IL-2 2.5 ng/mL) [4] = assay: as above; conditions: 72 h
KHYG-1 (IL-2 2.5 ng/mL) [5] = assay: as above; conditions: 72 h
NK-92 (IL-2 2.5 ng/mL) [6] = assay: as above; conditions: 72 h
NK-YS (IL-2 2.5 ng/mL) [7] = assay: as above; conditions: 72 h
NKL (IL-2 2.5 ng/mL) [8] = assay: as above; conditions: 72 h
SNK-6 (IL-2 2.5 ng/mL) [9] = assay: as above; conditions: 72 h
YT (IL-2 2.5 ng/mL) [10] = assay: as above; conditions: 72 h
[11] = tested on: normal primary NK cells, pool 1 (3 donors) (IL-2 2.5 ng/mL); assay: as above; conditions: 72 h
[12] = tested on: normal primary NK cells, pool 1 (3 donors), resting (IL-2 0 ng/mL); assay: as above; conditions: 72 h
[13] = tested on: normal primary NK cells, pool 2 (3 donors) (IL-2 2.5 ng/mL); assay: as above; conditions: 72 h
[14] = tested on: normal primary NK cells, pool 3 (3 donors) (IL-2 2.5 ng/mL); assay: as above; conditions: 72 h
[15] = tested on: normal NK cells expanded with K562-aAPC; assay: drug sensitivity score (DSS) (DSS units); higher = more sensitive; extreme values may be limits of the assay; conditions: 72 h; IL-2 2.5 ng/mL
Method: as §1

DERL-7 (IL-2 2.5 ng/mL) [16] = assay: as above; conditions: 72 h
IMC-1 (IL-2 20 ng/mL) [17] = assay: as above; conditions: 72 h
KAI3 (IL-2 2.5 ng/mL) [18] = assay: as above; conditions: 72 h
KHYG-1 (IL-2 2.5 ng/mL) [19] = assay: as above; conditions: 72 h
NK-92 (IL-2 2.5 ng/mL) [20] = assay: as above; conditions: 72 h
NK-YS (IL-2 2.5 ng/mL) [21] = assay: as above; conditions: 72 h
NKL (IL-2 2.5 ng/mL) [22] = assay: as above; conditions: 72 h
SNK-6 (IL-2 2.5 ng/mL) [23] = assay: as above; conditions: 72 h
YT (IL-2 2.5 ng/mL) [24] = assay: as above; conditions: 72 h
[25] = tested on: normal primary NK cells, pool 1 (3 donors) (IL-2 2.5 ng/mL); assay: as above; conditions: 72 h
[26] = tested on: normal primary NK cells, pool 1 (3 donors), resting (IL-2 0 ng/mL); assay: as above; conditions: 72 h
[27] = tested on: normal primary NK cells, pool 2 (3 donors) (IL-2 2.5 ng/mL); assay: as above; conditions: 72 h
[28] = tested on: normal primary NK cells, pool 3 (3 donors) (IL-2 2.5 ng/mL); assay: as above; conditions: 72 h

CN(C)c1nc(N(C)C)nc(N(C)C)n1 [Altretamine] (max concentration tested 10000 nM)
percent inhibition of viability [%]
Conditions | 1 nM | 10 nM | 100 nM | 1000 nM | 10000 nM
DERL-7 (IL-2 2.5 ng/mL) [2] | -4.53 | -2.77 | 0.97 | 2.22 | 0.81
IMC-1 (IL-2 20 ng/mL) [3] | -2.71 | 0.47 | -4.67 | -2.63 | -6.93
KAI3 (IL-2 2.5 ng/mL) [4] | 3.52 | 10.7 | 11.4 | 24.1 | 24.6
KHYG-1 (IL-2 2.5 ng/mL) [5] | -7.38 | -7.34 | -6.09 | -2.99 | -6.61
NK-92 (IL-2 2.5 ng/mL) [6] | -14.2 | -12.6 | -6.86 | -1.41 | -0.2
NK-YS (IL-2 2.5 ng/mL) [7] | 1.59 | -1.58 | 1.2 | 11.7 | 9.31
NKL (IL-2 2.5 ng/mL) [8] | -10 | -9.91 | -10.4 | 1.45 | 1.87
SNK-6 (IL-2 2.5 ng/mL) [9] | -4.42 | -8.89 | -0.39 | 6.56 | -2.57
YT (IL-2 2.5 ng/mL) [10] | -3.72 | -5.67 | -6.12 | -0.77 | -8.31
[1] | -2.99 | -3.76 | 0.47 | -2.02 | -2.72
[11] | -5.08 | -6.48 | -0.04 | -1.59 | 3.54
[12] | -0.78 | -0.59 | 9.13 | 16.1 | 26
[13] | -3.77 | -3.94 | -0.13 | 0 | 1.61
[14] | -9.05 | -7.82 | -1.85 | -3.99 | 3.69

Conditions | drug sensitivity score
DERL-7 (IL-2 2.5 ng/mL) [16] | 0
IMC-1 (IL-2 20 ng/mL) [17] | 0
KAI3 (IL-2 2.5 ng/mL) [18] | 4.61
KHYG-1 (IL-2 2.5 ng/mL) [19] | 0
NK-92 (IL-2 2.5 ng/mL) [20] | 0
NK-YS (IL-2 2.5 ng/mL) [21] | 0.51
NKL (IL-2 2.5 ng/mL) [22] | 0
SNK-6 (IL-2 2.5 ng/mL) [23] | 0
YT (IL-2 2.5 ng/mL) [24] | 0
[15] | 0
[25] | 0
[26] | 2.84
[27] | 0
[28] | 0

Cc1[nH]c2ccccc2c1CCNCc1ccc(/C=C/C(=O)NO)cc1 [Panobinostat] (max concentration tested 1000 nM)
percent inhibition of viability [%]
Conditions | 0.1 nM | 1 nM | 10 nM | 100 nM | 1000 nM
DERL-7 (IL-2 2.5 ng/mL) [2] | -11.8 | -4.71 | 36.5 | 100 | 100
IMC-1 (IL-2 20 ng/mL) [3] | -2.07 | -6.63 | 2.44 | 100 | 100
KAI3 (IL-2 2.5 ng/mL) [4] | 4.1 | 14.2 | 61.8 | 101 | 101
KHYG-1 (IL-2 2.5 ng/mL) [5] | -7.12 | -8.38 | 22.6 | 101 | 101
NK-92 (IL-2 2.5 ng/mL) [6] | -5.27 | -2.71 | 34 | 98.1 | 101
NK-YS (IL-2 2.5 ng/mL) [7] | -8.83 | -9.94 | 19.8 | 97.1 | 98.8
NKL (IL-2 2.5 ng/mL) [8] | -1.46 | 1.8 | 61.1 | 101 | 100
SNK-6 (IL-2 2.5 ng/mL) [9] | -14.8 | 4.53 | 31.4 | 98.9 | 99.6
YT (IL-2 2.5 ng/mL) [10] | 0.21 | -1.12 | 12.8 | 101 | 98.4
[1] | 0.2 | 2.99 | 33.4 | 99.8 | 99.8
[11] | 0.27 | -4.7 | 33.9 | 97 | 97.5
[12] | -10.7 | 2.83 | 67 | 89.2 | 90.8
[13] | -7.26 | -4.93 | 64.8 | 94.5 | 94.9
[14] | -7.01 | -2.67 | 31.6 | 97.8 | 98.5

Conditions | drug sensitivity score
DERL-7 (IL-2 2.5 ng/mL) [16] | 23
IMC-1 (IL-2 20 ng/mL) [17] | 18.3
KAI3 (IL-2 2.5 ng/mL) [18] | 26
KHYG-1 (IL-2 2.5 ng/mL) [19] | 21.6
NK-92 (IL-2 2.5 ng/mL) [20] | 22.5
NK-YS (IL-2 2.5 ng/mL) [21] | 21
NKL (IL-2 2.5 ng/mL) [22] | 25.2
SNK-6 (IL-2 2.5 ng/mL) [23] | 22.1
YT (IL-2 2.5 ng/mL) [24] | 20.1
[15] | 22.6
[25] | 22.3
[26] | 24.6
[27] | 24.6
[28] | 22.3
